Reference: US11549123B2, “Plant EPSP synthases and methods of use” (PIONEER HI-BRED INTERNATIONAL, INC., priority 2015, dated 2023)

Experiments:
[1] = biological target: Sorghum halepense EPSPS with 868-H6 mutations, SEQ ID NO:12 (Sorghum halepense, UniProt H6T5X2, A1R/A3W/A415G/D401G/E301S/E390G/G101A/I207L/K83R/L97C/T278A/T360S/T440Q/V437R/V71Q); experiment: EPSPS substrate saturation kinetics, sorghum H6; type: biochemical
Experimental: EPSPS activity was determined by quantifying the phosphate generated from the EPSPS reaction. Release of inorganic phosphate was coupled to reaction with 2-amino-6-mercapto-7-methylpurine ribonucleoside, catalyzed by purine-nucleoside phosphorylase (M R Webb, Proc. Natl. Acad. Sci. 89:4884-4887, 1992). The absorbance change that occurs was monitored at 360 nm, where the extinction is 11,200 M^−1 cm^−1, with a Spectramax plate reader (Molecular Devices). To determine kinetic parameters, the varied substrate was present at seven concentrations (the eighth being the blank, containing no substrate) ranging from 4 to 400 uM and the unvaried substrate present at saturation. […] Reactions were monitored with a Spectramax plate reader. […] KI was then calculated from the following form of the Michaelis-Menten equation for competitive inhibition: KI=KM[I]/(KM app−KM) KM approximates the dissociation constant of the enzyme-substrate complex while kcat is the rate of conversion of substrate to product when the substrate concentration is saturating. kcat/KM is a widely accepted parameter for catalytic efficiency when substrate concentration is low (˜KM). […] The parameter kcat/KM×KI is used to quantify both catalytic efficiency and insensitivity and thus the overall fitness of the enzyme. […]

[2] = biological target: T1, Zea mays EPSPS variant Zm-H6 (868-H6) with K246G (H6-K246G) (Zea mays, UniProt O24566, A1R/A3W/A415G/A71Q/D401G/E301S/E390G/G101A/I207L/K245G/K83R/L97C/T278A/T360S/T440Q/V437R); experiment: Substrate saturation kinetic analysis with glyphosate, H6-K246G; type: biochemical
T1 construct: 868-H6 plus K246G; E. coli BL21(DE3), Ni-NTA purified
T1 sequence (O24566 with tags, fused parts or gaps A1R/A3W/A71Q/K83R/L97C/G101A/I207L/K245G/T278A/E301S/T360S/E390G/D401G/A415G/V437R/T440Q): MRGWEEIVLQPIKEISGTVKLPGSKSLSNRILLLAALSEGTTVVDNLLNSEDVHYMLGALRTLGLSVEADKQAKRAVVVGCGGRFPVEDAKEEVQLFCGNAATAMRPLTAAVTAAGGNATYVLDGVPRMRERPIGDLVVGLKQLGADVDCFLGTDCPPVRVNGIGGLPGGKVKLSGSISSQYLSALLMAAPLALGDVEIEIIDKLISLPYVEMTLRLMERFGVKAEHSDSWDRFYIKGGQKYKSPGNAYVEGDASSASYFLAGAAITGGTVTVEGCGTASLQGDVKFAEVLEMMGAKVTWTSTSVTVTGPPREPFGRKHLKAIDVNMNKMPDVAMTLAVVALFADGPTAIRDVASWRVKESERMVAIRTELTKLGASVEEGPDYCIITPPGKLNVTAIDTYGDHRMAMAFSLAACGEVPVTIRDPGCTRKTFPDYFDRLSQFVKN

[3] = biological target: Bacterial EPSPS (CP4) (Agrobacterium sp., UniProt Q9R4E4); experiment: Substrate saturation kinetic analysis with glyphosate, bacterial EPSPS (CP4)
Chain of Bacterial EPSPS (CP4) (Q9R4E4 whole entry): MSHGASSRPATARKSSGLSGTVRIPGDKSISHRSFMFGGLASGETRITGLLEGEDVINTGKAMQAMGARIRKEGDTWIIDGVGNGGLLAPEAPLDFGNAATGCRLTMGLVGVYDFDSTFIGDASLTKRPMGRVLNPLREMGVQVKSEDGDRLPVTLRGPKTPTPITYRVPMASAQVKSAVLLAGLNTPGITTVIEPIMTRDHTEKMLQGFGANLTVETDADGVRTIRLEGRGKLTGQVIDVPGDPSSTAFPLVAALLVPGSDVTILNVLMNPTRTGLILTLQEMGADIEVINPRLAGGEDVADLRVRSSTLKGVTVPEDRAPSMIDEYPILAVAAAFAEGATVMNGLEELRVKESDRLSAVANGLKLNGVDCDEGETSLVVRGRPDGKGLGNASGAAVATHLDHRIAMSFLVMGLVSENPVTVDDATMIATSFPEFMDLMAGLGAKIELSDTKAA
From the text: There are several practical considerations for accurately estimating (kcat/KM)*KI with the rapid method. […] If inhibition is too little, v0-vi will be small, and the error in the multiplier vi×v0/(v0-vi) will be large. […] High substrate concentration obscures sensitivity to the inhibitor and reduces stringency for capturing improvements in KM.

Chain of Sorghum halepense EPSPS with 868-H6 mutations, SEQ ID NO:12 (H6T5X2 entry or part of it with the stated changes): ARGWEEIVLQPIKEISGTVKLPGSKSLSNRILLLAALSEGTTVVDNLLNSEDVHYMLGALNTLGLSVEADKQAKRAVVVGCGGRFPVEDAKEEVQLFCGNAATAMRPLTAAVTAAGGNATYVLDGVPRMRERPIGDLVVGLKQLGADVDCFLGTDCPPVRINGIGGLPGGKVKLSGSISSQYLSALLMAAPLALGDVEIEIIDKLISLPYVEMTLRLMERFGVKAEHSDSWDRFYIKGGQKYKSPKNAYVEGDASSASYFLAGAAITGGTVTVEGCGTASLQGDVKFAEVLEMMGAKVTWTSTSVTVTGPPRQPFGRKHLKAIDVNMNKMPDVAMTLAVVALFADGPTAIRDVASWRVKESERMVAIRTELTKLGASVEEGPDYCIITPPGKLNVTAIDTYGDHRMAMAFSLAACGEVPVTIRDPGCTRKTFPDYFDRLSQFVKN

`O=C(O)CNCP(=O)(O)O` [glyphosate, N-phosphonomethylglycine] was tested, and the Ki [1] was 783 µM, the “(kcat/KM)*KI” value ([1]; PEP as substrate, glyphosate as inhibitor) was 8080 and the Ki [2] was 284 µM. For the same compound, the “(kcat/KM)*KI” value ([2]; substrate saturation, H6-K246G) was 2490, the Ki [3] was 1410 µM and the “(kcat/KM)*KI” value ([3]; substrate saturation, Bacterial EPSPS / CP4) was 108900.
